# Test results as given in patent publication EP0414533A1, “Use of iodopropargyl esters of alpha-amino acid derivatives as antimicrobial agents” (ROHM AND HAAS COMPANY, priority 1989, dated 1991).
# Where a name gives a salt, the structure may show the parent alone. Read-outs that look alike come from different tables or passages of the source.
# Experiments:
# [1] = test system: Aureobasidium pullulans (APUL); test: Minimum inhibitory concentration (MIC), broth two-fold serial dilution test; type: cell-based; details: Aureobasidium pullulans
# [2] = test system: CER; test: In-vitro plant fungicide test; type: cell-based; details: Table IVb, read-out: % Control at (ppm) indicated CER; for inhibition of growth at 0.2 ppm: .2 ppm; for inhibition of growth at 0.4 ppm: .4 ppm; for inhibition of growth at 0.8 ppm: .8 ppm
# [3] = test system: Fusarium roseum (FUS); test: In-vitro plant fungicide test; type: cell-based; details: Fusarium sambucinum; for inhibition of growth at 1.5 ppm: read-out: % Control at (ppm) indicated FUS, 1.5 ppm; for inhibition of growth at 3 ppm: read-out: % Control at (ppm) indicated FUS, 3 ppm; for inhibition of growth at 6 ppm: read-out: % Control at (ppm) indicated FUS, 6 ppm; for inhibition of growth at 12 ppm: read-out: % Control at (ppm) indicated FUS, 12 ppm; for inhibition of growth at 0.2 ppm: read-out: % Control at (ppm) indicated FUS, .2 ppm; for inhibition of growth at 0.4 ppm: read-out: % Control at (ppm) indicated FUS, .4 ppm; for inhibition of growth at 0.8 ppm: read-out: % Control at (ppm) indicated FUS, .8 ppm
# [4] = test system: Cochliobolus sativus (HEL); test: In-vitro plant fungicide test; type: cell-based; details: Bipolaris sorokiniana; for inhibition of growth at 0.2 ppm: .2 ppm; for inhibition of growth at 0.4 ppm: .4 ppm; for inhibition of growth at 0.8 ppm: .8 ppm
# [5] = test system: Rhizoctonia solani (RHI); test: In-vitro plant fungicide test; type: cell-based; details: Rhizoctonia solani; for inhibition of growth at 0.2 ppm: .2 ppm; for inhibition of growth at 0.4 ppm: .4 ppm; for inhibition of growth at 0.8 ppm: .8 ppm
# [6] = test system: UST; test: In-vitro plant fungicide test; type: cell-based; set-up: inhibition of growth: concentration or dose not given beside the values; details: Table IVb, read-out: % Control at (ppm) indicated UST; for inhibition of growth at 0.2 ppm: .2 ppm; for inhibition of growth at 0.4 ppm: .4 ppm; for inhibition of growth at 0.8 ppm: .8 ppm
# [7] = test system: Xanthomonas campestris (XAN); test: In-vitro plant fungicide test; type: cell-based; set-up: inhibition of growth: concentration or dose not given beside the values; details: Xanthomonas campestris
# [8] = test system: Pseudomonas aerugenosa (PSAE); test: Minimum inhibitory concentration (MIC), broth two-fold serial dilution test; details: Pseudomonas
# Excerpt: When the test is ready to be done, each vessel in the dilution series, except the first vessel, contains an equal volume of compound free broth. The first vessel contains twice the volume of broth with the starting concentration of test compound. One half of the broth from the first vessel is transferred to the second vessel. After being mixed, one half the resulting volume is removed from the second vessel and transferred to the third vessel. The entire cycle is repeated sufficiently to give a series of concentrations amounting to 500, 250, 125, 63, 31, 16, 8, and 4 ppm (or 100, 50, 25, 12.5, 6.2, 3.1, 1.6, and 0.8), respectively.
# Each vessel is then inoculated with a cell suspension of the appropriate test organism. Bacteria are grown in broth, fungi on agar slants for a time and at a temperature appropriate to the species being tested, and algae are a mixture of green algae and blue-green bacteria grown in a nutrient media. At the end of the growth period, in the case of bacteria, the broth is vortexed to disperse the cells.
# The vessels are then incubated at the appropriate temperature. After the incubation, the vessels are examined for growth/no growth.
# [9] = read-out: % Control at 25 ppm FUS, 25 ppm, Table IVa, *=Phytotoxic
# [10] = read-out: % Control at (ppm) indicated FUS, 25 ppm, Table IVb
# [11] = Table IVb, read-out: % Control at (ppm) indicated HEL
# [12] = Table IVa, *=Phytotoxic, read-out: % Control at 25 ppm HEL
# [13] = Table IVb, read-out: % Control at (ppm) indicated RHI
# [14] = Table IVa, read-out: % Control at 25 ppm RHI
# [15] = Table IVa, read-out: % Control at 25 ppm XAN
# [16] = Table IVb, read-out: % Control at (ppm) indicated XAN
structure (smiles),measurement,setting,value
"C[C@H](N)C(=O)N[C@@H](COCc1ccccc1)C(=O)OCC#CI [Compound 19, L-alanyl-O-benzyl-L-serine iodopropargyl ester trifluoroacetate]",MIC,"[1]; read-out: MIC (F) APUL, M9G (minimal salts media with glucose), Table IIIc, iodopropargyl esters of peptides",< 0.8 µg/mL
same,inhibition of growth at 1.5 ppm,[2],0%
same,inhibition of growth at 6 ppm,[2],50%
same,inhibition of growth at 25 ppm,[2],100%
same,inhibition of growth at 0.2 ppm,[2],0%
same,inhibition of growth at 0.4 ppm,[2],0%
same,inhibition of growth at 0.8 ppm,[2],0%
same,inhibition of growth at 25 ppm,[3]; [9],100%
same,inhibition of growth at 1.5 ppm,[3]; Table IVb,0%
same,inhibition of growth at 3 ppm,[3]; Table IVb,0%
same,inhibition of growth at 6 ppm,[3]; Table IVb,0%
same,inhibition of growth at 12 ppm,[3]; Table IVb,0%
same,inhibition of growth at 25 ppm,[3]; [10],0%
same,inhibition of growth at 0.2 ppm,[3]; Table IVb,0%
same,inhibition of growth at 0.4 ppm,[3]; Table IVb,0%
same,inhibition of growth at 0.8 ppm,[3]; Table IVb,0%
same,inhibition of growth at 1.5 ppm,[4]; [11],0%
same,inhibition of growth at 6 ppm,[4]; [11],0%
same,inhibition of growth at 25 ppm,[4]; [12],100%
same,inhibition of growth at 25 ppm,[4]; [11],100%
same,inhibition of growth at 0.2 ppm,[4]; [11],0%
same,inhibition of growth at 0.4 ppm,[4]; [11],0%
same,inhibition of growth at 0.8 ppm,[4]; [11],0%
same,inhibition of growth at 1.5 ppm,[5]; [13],0%
same,inhibition of growth at 6 ppm,[5]; [13],0%
same,inhibition of growth at 25 ppm,[5]; [14],100%
same,inhibition of growth at 25 ppm,[5]; [13],100%
same,inhibition of growth at 0.2 ppm,[5]; [13],0%
same,inhibition of growth at 0.4 ppm,[5]; [13],0%
same,inhibition of growth at 0.8 ppm,[5]; [13],0%
same,inhibition of growth at 1.5 ppm,[6],0%
same,inhibition of growth at 3 ppm,[6],0%
same,inhibition of growth at 6 ppm,[6],100%
same,inhibition of growth at 25 ppm,[6],100%
same,inhibition of growth at 0.2 ppm,[6],0%
same,inhibition of growth at 0.4 ppm,[6],0%
same,inhibition of growth at 0.8 ppm,[6],0%
same,inhibition of growth,[6],100%
same,inhibition of growth at 1.5 ppm,"[7]; 1.5 ppm, Table IVb, read-out: % Control at (ppm) indicated XAN",0%
same,inhibition of growth at 3 ppm,"[7]; 3 ppm, Table IVb, read-out: % Control at (ppm) indicated XAN",0%
same,inhibition of growth at 6 ppm,"[7]; 6 ppm, Table IVb, read-out: % Control at (ppm) indicated XAN",0%
same,inhibition of growth at 25 ppm,[7]; [15],0%
same,inhibition of growth at 25 ppm,[7]; [16],0%
same,inhibition of growth at 0.2 ppm,"[7]; .2 ppm, Table IVb, read-out: % Control at (ppm) indicated XAN",0%
same,inhibition of growth at 0.4 ppm,"[7]; .4 ppm, Table IVb, read-out: % Control at (ppm) indicated XAN",0%
same,inhibition of growth at 0.8 ppm,"[7]; .8 ppm, Table IVb, read-out: % Control at (ppm) indicated XAN",0%
same,inhibition of growth,[7]; [16],0%
same,MIC,"[8]; read-out: MIC (G-) PSAE, M9G (minimal salts media with glucose), Table IIIc, iodopropargyl esters of peptides",50 µg/mL
"CC(=O)NCC(=O)OCC#CI [Compound 28, N-acetylglycine iodopropargyl ester]",MIC,"[1]; IIIB, trypticase soy broth (complex media), Table IIIb, read-out: MIC (F) APUL",4 µg/mL
same,inhibition of growth at 1.5 ppm,[2],0%
same,inhibition of growth at 6 ppm,[2],100%
same,inhibition of growth at 25 ppm,[2],100%
same,inhibition of growth at 0.2 ppm,[2],0%
same,inhibition of growth at 0.4 ppm,[2],0%
same,inhibition of growth at 0.8 ppm,[2],0%
same,inhibition of growth at 25 ppm,[3]; [9],100%
same,inhibition of growth at 1.5 ppm,[3]; Table IVb,0%
same,inhibition of growth at 3 ppm,[3]; Table IVb,0%
same,inhibition of growth at 6 ppm,[3]; Table IVb,0%
same,inhibition of growth at 12 ppm,[3]; Table IVb,100%
same,inhibition of growth at 25 ppm,[3]; [10],100%
same,inhibition of growth at 0.2 ppm,[3]; Table IVb,0%
same,inhibition of growth at 0.4 ppm,[3]; Table IVb,0%
same,inhibition of growth at 0.8 ppm,[3]; Table IVb,0%
same,inhibition of growth at 1.5 ppm,[4]; [11],0%
same,inhibition of growth at 6 ppm,[4]; [11],100%
same,inhibition of growth at 25 ppm,[4]; [12],100%
same,inhibition of growth at 25 ppm,[4]; [11],100%
same,inhibition of growth at 0.2 ppm,[4]; [11],0%
same,inhibition of growth at 0.4 ppm,[4]; [11],0%
same,inhibition of growth at 0.8 ppm,[4]; [11],0%
same,inhibition of growth at 1.5 ppm,[5]; [13],100%
same,inhibition of growth at 6 ppm,[5]; [13],100%
same,inhibition of growth at 25 ppm,[5]; [14],100%
same,inhibition of growth at 25 ppm,[5]; [13],100%
same,inhibition of growth at 0.2 ppm,[5]; [13],0%
same,inhibition of growth at 0.4 ppm,[5]; [13],0%
same,inhibition of growth at 0.8 ppm,[5]; [13],0%
same,inhibition of growth at 1.5 ppm,[6],50%
same,inhibition of growth at 3 ppm,[6],100%
same,inhibition of growth at 6 ppm,[6],100%
same,inhibition of growth at 12 ppm,[6]; 12 ppm,100%
same,inhibition of growth at 25 ppm,[6],100%
same,inhibition of growth at 0.2 ppm,[6],0%
same,inhibition of growth at 0.4 ppm,[6],0%
same,inhibition of growth at 0.8 ppm,[6],0%
same,inhibition of growth at 25 ppm,[7]; [15],50%
same,MIC,"[8]; IIIB, read-out: MIC (G-) PSAE, trypticase soy broth (complex media), Table IIIb",63 µg/mL
